Results reported in US7105725B2, “Pathogen resistant transgenic plants expressing CEMA or CEMA-related peptides” (University of Victoria Innovation and Development …, priority 1999, dated 2006).

Key:
[1] = tested on: E. coli; experiment: anti-bacterial assay (colony count after 4 h with serially diluted peptide); type: cell-based, Escherichia coli DH5α
Experimental: The antibacterial activity of a given CEMA and/or CEMA-related peptide can be assessed conveniently by determining the ability of the peptide to inhibit the growth of a pectinolytic bacterial strain such as Erwinia carotovora or even Escherichia coli DH5α. The activity of a given peptide is determined by serially diluting the peptide in Luria-Bertaini (LB) medium and 100-μL aliquots of the resulting titers into wells of a 96-well microtiter plate. A fresh bacterial culture (˜0.3 A550) is then grown on LB medium (1% w/v tryptone and 0.5% w/v yeast extract) and diluted to 10^−2 in LB to represent approximately 10^4–10^5 colony forming units (CFU)mL^−1. 10 μL of the bacterial culture are then inoculated into each well containing the peptide and the samples are incubated at 37° C. for 4 hours. The well contents are then diluted in LB, plated on LB agar, and incubated overnight at an appropriate temperature. […] The colonies are counted, and the antibacterial activity of the peptide under test is determined by comparison to the control plate.
The CEMA or CEMA-related peptide is determined to have biological activity if, under the conditions of this assay, the peptide is capable of inhibiting bacterial growth by at least 10% (compared to the control) at a concentration of 7 μg per mL (i.e., at this concentration, the number of bacterial colonies is no more than 90% that of the control plate).

[2] = tested on: susceptible microorganisms; conditions: cited from earlier work

In the case of KWKLFKKIGIGAVLKVLTTGLPALKLTK [CEMA], the “concentration that kills 50% of bacterial cells” value [1] is reported as 4.5 µg/mL.
For mellitin, the antimicrobial activity [2] is given as “potent antimicrobial activity”.
